Measured values taken from patent US20260356957A1, “METHODS FOR TREATMENT OF NON-SMALL CELL LUNG CANCER (NSCLC)” (Janssen Biotech, Inc., priority 2023, published 2026).

System: EGFR-mutant (Ex19del/L858R) advanced NSCLC
Assay: MARIPOSA Phase 3, PFS in high-risk subgroups
Type: in vivo, human
Experimental: Key Eligibility Criteria: locally advanced or metastatic NSCLC, treatment-naïve for advanced disease, documented EGFR Ex19del or L858R, and ECOG PS 0 or 1. […] High-risk subgroups analyzed: liver metastases, brain metastases, TP53 co-mutation, detectable EGFRm ctDNAd at baseline, and without EGFRm ctDNAd clearance at C3D1 (Week 9) (FIG. 16). Detection of ctDNA and co-mutations were analyzed by next-generation sequencing (NGS) of blood at baseline. Detection and clearance of Ex19del and L858R ctDNA in blood were analyzed with ddPCR at baseline and C3D1.

## C=CC(=O)Nc1cc(Nc2nccc(-c3cn(C)c4ccccc34)n2)c(OC)cc1N(C)CCN(C)C [Osimertinib]
Detectable baseline ctDNA, Biodesix ddPCR
  Median PFS: 14.8 months
wild-type TP53 at baseline
  Median PFS: 19.9 months
With TP53 co-mutations at baseline
  Median PFS: 12.9 months
With brain metastases at baseline
  Median PFS: 13.0 months
With cleared ctDNA at C3D1, Biodesix ddPCR
  Median PFS: 16.5 months
With liver metastases at baseline
  Median PFS: 11.0 months
Without brain metastases at baseline
  Median PFS: 19.9 months
Without cleared ctDNA at C3D1, Biodesix ddPCR
  Median PFS: 9.1 months
Without detectable baseline ctDNA, Biodesix ddPCR
  Median PFS: 21.9 months
Without liver metastases at baseline
  Median PFS: 18.3 months
